Measurements published in US7056506B2, “Methods for detecting and inhibiting angiogenesis” (The Regents of the University of California, priority 1998, dated 2006).

Legend:
[1] = tested on: chick embryo fibroblasts (CEF's); assay: Cell adhesion assay, adhesion to fibronectin; assay type: cell-based
Text: (§1) HT29 integrin α5β1^+ cells, integrin α5β1^− colon carcinoma cells (Varner et al., Mol. Biol. Cell 6:725–740 (1995)), and chick embryo fibroblasts (CEF's) were maintained in DMEM high glucose supplemented with 10% fetal bovine serum (FBS) and gentamycin. Human umbilical vein endothelial cells (HUVEC's) were maintained in M199 medium containing sodium bicarbonate, HEPES, heparin, endothelial cell growth supplement, 20% FBS and gentamycin. Culture media and reagents were from Irvine Scientific (Irvine, Calif.).
(§2) The wells of 48 well culture dishes (Costar, Inc.) were coated with 1 μg/ml vitronectin, 2 μg/ml fibronectin (chick embryo fibroblasts and HUVEC's) or 10 μg/ml fibronectin (HT29-α5^+ cells) for 1 hr at 37° C., then blocked with 2% heat denatured BSA in PBS for 1 hr. Fifty thousand cells in 250 μl of adhesion buffer were added to triplicate wells containing 250 μl of a solution of 50 μg/ml of an anti-α5β1 function blocking antibody (NKI-SAM-1, JBS5 or IIA1), 50 μg/ml of an anti-α5β1 non-function blocking antibody (HA5 or VC5; Pharmingen, Inc.; San Diego Calif.), 10 μM cyclic peptides (Koivunen et al., J. Biol. Chem. 268:20205–20210 (1993); Koivunen et al., J. Cell Biol. 124:373380 (1994)), 0–10 μM SJ749 ((S)-2-{(2,4,6-trimethylphenyl)sulfonyl}amino-3{7-benzyloxycarbonyl-8-(2-pyridinylaminomethyl)-1-oxa-2,7-diazaspiro-{4,4}-non-2-en-3-yl}carbonylamino}propionic acid)), 50 μg/ml of LM609, an anti-αVβ3 function blocking antibody, 50 μg/ml P4C10, an anti-β1 function blocking antibody, 50 μg/ml of an anti-fibronectin cell binding domain monoclonal antibody or 50 μg/ml of an anti-fibronectin N-terminus monoclonal antibody in adhesion buffer (HEPES buffered Hanks balanced salt solution, HBSS, containing 1% BSA, 2 mM MgCl2, 2 mM CaCl2 and 0.2 mM MnCl2).
(§3) Cells were allowed to adhere to dishes for 20 min at 37° C. Nonadherent cells were removed by washing each well four times with 500 μl of warm adhesion buffer. Adherent cells were then fixed for 15 min with 3.7% paraformaldehyde in PBS and stained with a 2% crystal violet solution. After extensive water washing to remove excess crystal violet, plates were dried overnight. Crystal violet was extracted by incubation for 15 min in 10% acetic acid and absorbance at 562 nm determined as an indicator of number of cells bound. Each experiment was performed in triplicate, with triplicate samples per condition.

[2] = tested on: Human umbilical vein endothelial cells (HUVEC's); assay: Cell adhesion assay, adhesion to fibronectin; assay type: cell-based
Text: as §1, §2, §3

[3] = tested on: growth factor-induced angiogenesis in chick embryos; assay: Chick CAM angiogenesis assay, systemic administration, growth factor not specified; assay type: in vivo; details: chick embryo, read-out: amount inhibiting angiogenesis by 50% (converted)
Text: (§4) Ten day old embryonated chicken eggs (McIntyre Poultry; Ramona Calif.) were candled to illuminate blood vessels under the shell and an area with a minimum of small blood vessels is identified. The CAM was dropped away from the eggshell in this area by grinding a small hole in the mineralized shell and applying pressure to the underlying inner shell membrane. This procedure caused an air pocket to shift from the wide end of the egg to the identified area and forcing a circular region of the CAM approximately 2 cm in diameter to drop away from the shell. […]
(§5) Fibronectin, vitronectin and fibronectin fragments (59 pmol in a final volume of 25 μl) were applied to stimulated or unstimulated CAM's. […] Blood vessel branch points in the 5 mm filter disk area were counted at 30× magnification in a blinded fashion as a size-independent quantitative indicator of vascular sprouting in response to growth factors. […] Thus, counting of blood vessel branch points is a useful quantitative means of obtaining an angiogenic index (Brooks et al., In “Methods in Molecular Biology” (Humana Press 1999). At least ten embryos were used per treatment group. Each experiment was performed a minimum of three times.
(§6) Data was evaluated in terms of average number of blood vessel branch points per treatment group +/−standard error of measurement . […]

HUVEC's = assay: Cell migration assay on fibronectin; assay type: cell-based, human
Protocol: The lower side of 8 μm pore transwell inserts (Costar, Inc.) were coated with 2 μg/ml of fibronectin, collagen (Collaborative Biomedical Products; Bedford Mass.) or no protein for 1 hr and were blocked with 2% BSA in PBS for 1 hr. The inserts then were placed into 24 well culture dishes containing 500 μl migration buffer in the lower chamber. Twenty-five thousand HUVEC's in 50 μl of migration buffer (HEPES buffered M199 medium containing 1% BSA, 2 mM MgCl2, 2 mM CaCl2 and 0.2 mM MnCl2) were added to the upper chamber of duplicate inserts containing 50 μl of a solution of 50 μg/ml of anti-α5β1 function blocking antibody (NKI-SAM-1, JBS5 or IIA1), 50 μg/ml of anti-α5β1 non-function blocking antibody (HA5 or VC5), or 50 μg/ml of LM609 (an anti-αVβ3 function blocking antibody) in migration buffer, or migration buffer alone.
Cells were allowed to migrate from the upper to the lower chamber for 4 hr at 37° C. Nonmigratory cells were removed from the upper surface by wiping the upper side with an absorbant tip, and cells that had migrated to the lower side of the transwell insert were fixed for 15 min with 3.7% paraformaldehyde in PBS, then stained with a 2% crystal violet solution. After extensive water washing to remove excess crystal violet, the number of cells that had migrated were counted in three representative high power (200×) fields per insert. […]

[4] = tested on: HT29 colon carcinoma cells lacking α5β1 expression; assay: Chick CAM tumor assay, HT29; assay type: in vivo; details: HT29 tumors on CAM
Protocol: The chick CAM tumor assay was performed by placing ten million tumor cells on the surface of a CAM, and culturing the cells for one week. The resulting tumors were excised and cut into 50 mg fragments. […] Forty-eight hours later, CAM's were excised from the egg and the number of blood vessels entering the tumors were counted (as vessel branch points).
Data was presented as mean blood vessel number per treatment group (+/− standard error of measurement). Each treatment group incorporated at least ten tumors per experiment. Representative tumors were photographed at 10× magnification. Tumors were excised from the egg and tumor weights were determined for each tumor Data was presented as mean tumor weight per treatment group (+/− standard error of measurement). Statistical analyses were performed using Student's t-test.
HT29 colon carcinoma cells lacking α5β1 expression were grown on the CAM's of 10-day old embryos. These tumor cells secrete several angiogenic growth factors, including VEGF, TGFα, TGFβ, TNFα, and IL-8 (Anzano et al., Cancer Res. 49:2898–2904 (1989); Varner et. al., supra, 1995; Ellis et al., J. Biol. Chem. 273:1052–1057 (1998)). Integrin α5β1 negative tumor cells were used to distinguish the potential anti-tumor effects from anti-vasculature effects of integrin α5β1 antagonists.

[5] = tested on: bFGF-induced angiogenesis on the chick CAM; assay: In ovo chick CAM angiogenesis assay, bFGF stimulated; assay type: in vivo
Text: (§7) Ten day old embryonated chicken eggs (McIntyre Poultry; Ramona Calif.) were candled to illuminate blood vessels under the shell and an area with a minimum of small blood vessels is identified. The CAM was dropped away from the eggshell in this area by grinding a small hole in the mineralized shell and applying pressure to the underlying inner shell membrane. This procedure caused an air pocket to shift from the wide end of the egg to the identified area and forcing a circular region of the CAM approximately 2 cm in diameter to drop away from the shell. A window was cut in the egg shell and a cortisone acetate pre-treated filter disc 5 mm in diameter that had been saturated in 1 μg/ml bFGF, VEGF, TNFα, IL-8 (Genzyme, Inc.; Cambridge Mass.) or saline was placed on the CAM. The window in the shell was sealed with adhesive tape and the egg was incubated for four days.
(§8) Anti-fibronectin antibodies (25 μg in 25 μl) also were applied topically to the CAM.
(§9) Fibronectin, vitronectin and fibronectin fragments (59 pmol in a final volume of 25 μl) were applied to stimulated or unstimulated CAM's. Peptide or small molecule antagonists of α5β1 (at a final serum concentration of 0–25 μM) also were injected intravenously into the chick circulation 24 hr later. CAM's were harvested on the fourth day of stimulation. Blood vessel branch points in the 5 mm filter disk area were counted at 30× magnification in a blinded fashion as a size-independent quantitative indicator of vascular sprouting in response to growth factors. Angiogenesis is characterized by the sprouting of new vessels in response to growth factors. Thus, counting of blood vessel branch points is a useful quantitative means of obtaining an angiogenic index (Brooks et al., In “Methods in Molecular Biology” (Humana Press 1999). At least ten embryos were used per treatment group. Each experiment was performed a minimum of three times.
(§10) Data was evaluated in terms of average number of blood vessel branch points per treatment group +/−standard error of measurement . Statistical analyses were performed using Student's t-test. Representative CAMS from each treatment group were photographed at 10X magnification. In some cases, CAM tissue excised from the egg was frozen in OCT (Baxter; McGraw Park Ill.) in liquid nitrogen, cut into 5 μm sections, air dried and processed for immunohistochemical analysis as described in Example I, except without fixation.

α5^+ HT29 cells = assay: Cell adhesion assay, adhesion to fibronectin; assay type: cell-based, human
Text: as §1, §2
Cells were allowed to adhere to dishes for 20 min at 37° C. Nonadherent cells were removed by washing each well four times with 500 μl of warm adhesion buffer. […] Crystal violet was extracted by incubation for 15 min in 10% acetic acid and absorbance at 562 nm determined as an indicator of number of cells bound. […]

[6] = tested on: VEGF-induced angiogenesis on the chick CAM; assay: In ovo chick CAM angiogenesis assay, VEGF stimulated; assay type: in vivo; details: for effect of applied matrix protein on the angiogenic effect of VEGF: matrix protein applied to VEGF stimulated CAM's
Text: as §7, §8, §9, §10

[7] = tested on: blood vessels of unstimulated CAM's; assay: In ovo chick CAM angiogenesis assay, unstimulated CAM's; assay type: in vivo; details: absence of growth factor
Text: as §4, §5, §6

[8] = matrix protein applied to bFGF stimulated CAM's

## CRRETAWAC
[1]
  effect on adhesion to fibronectin: significantly inhibited
[2]
  effect on adhesion to fibronectin: significantly inhibited
[3]
  IC50: 60 nM
HUVEC's
  effect on endothelial cell migration on fibronectin: interfered
[4]
  effect on tumor size: induced tumor regression
  tumors smaller than control treated tumors: 31%
[5]; bFGF stimulated CAM
  inhibition of bFGF-induced angiogenesis (blood vessel branch points): 90+/−6%
α5^+ HT29 cells
  effect on adhesion to fibronectin: significantly inhibited
[6]; VEGF stimulated CAM
  effect on VEGF angiogenesis: failed to block

## fibronectin: intact human fibronectin
[7]
  effect on blood vessels / angiogenesis of unstimulated CAM's: neither fibronectin nor vitronectin promoted angiogenesis
[5]; [8]
  enhancement of growth factor stimulated angiogenesis: at least 46+/−11%
[6]
  effect of applied matrix protein on the angiogenic effect of VEGF: did not potentiate

B1: vitronectin: vitronectin, extracellular matrix protein applied to CAM's (protein)
chain: DQESCKGRCTEGFNVDKKCQCDELCSYYQSCCTDYTAECKPQVTRGDVFTMPEDEYTVYDDGEEKNNATVHEQVGGPSLTSDLQAQSKGNPEQTPVLKPEEEAPAPEVGASKPEGIDSRPETLHPGRPQPPAEEELCSGKPFDAFTDLKNGSLFAFRGQYCYELDEKAVRPGYPKLIRDVWGIEGPIDAAFTRINCQGKTYLFKGSQYWRFEDGVLDPDYPRNISDGFDGIPDNVDAALALPAHSYSGRERVYFFKGKQYWEYQFQHQPSQEECEGSSLSAVFEHFAMMQRDSWEDIFELLFWGRTSAGTRQPQFISRDWHGVPGQVDAAMAGRIYISGMAPRPSLAKKQRFRHRNRKGYRSQRGHSRGRNQNSRRPSRATWLSLFSSEESNLGANNYDDYRMDWLVPATCEPIQSVFFFSGDKYYRVNLRTRRVDTVDPPYPRSIAQYWLGCPAPGHL
[7]
  effect on blood vessels / angiogenesis of unstimulated CAM's: neither fibronectin nor vitronectin promoted angiogenesis
[5]; [8]
  effect of applied matrix protein on bFGF stimulated angiogenesis: no effect
[6]
  effect of applied matrix protein on the angiogenic effect of VEGF: did not potentiate
